In ChEMBL document CHEMBL4609980, “Identification of antimalarial leads with dual falcipain-2 and falcipain-3 inhibitory activity” (Bioorg Med Chem, 2020):
Calls of active or inactive are those of the source. No cut-off for these calls is given here.

Experiments:
[1] = target: T1, Falcipain 2 (Plasmodium falciparum) (UniProt Q9N6S8); test: Inhibition of recombinant Plasmodium falciparum falcipain-2 expressed in bacterial expression system using ZFR-AMC as substrate at 100 uM measured for 30 mins by fluorimetric assay relative to control
T1 sequence (whole entry): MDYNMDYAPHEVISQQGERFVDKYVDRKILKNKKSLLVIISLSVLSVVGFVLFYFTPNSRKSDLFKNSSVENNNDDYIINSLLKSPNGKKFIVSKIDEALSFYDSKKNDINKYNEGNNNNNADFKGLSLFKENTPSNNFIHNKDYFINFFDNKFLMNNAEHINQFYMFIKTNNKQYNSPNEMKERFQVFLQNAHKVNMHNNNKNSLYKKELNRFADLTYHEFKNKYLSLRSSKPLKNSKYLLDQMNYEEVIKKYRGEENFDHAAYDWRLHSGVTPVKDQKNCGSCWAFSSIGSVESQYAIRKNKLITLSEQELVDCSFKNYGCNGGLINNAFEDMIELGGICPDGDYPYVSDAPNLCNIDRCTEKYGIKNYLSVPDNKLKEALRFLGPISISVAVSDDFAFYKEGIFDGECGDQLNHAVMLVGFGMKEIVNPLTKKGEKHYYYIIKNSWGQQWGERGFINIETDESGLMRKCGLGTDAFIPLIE

[2] = target: T2, Cysteine protease falcipain-3 (Plasmodium falciparum) (UniProt Q9NAW4); test: Inhibition of recombinant Plasmodium falciparum falcipain-3 expressed in bacterial expression system using ZFR-AMC as substrate at 100 uM measured for 30 mins by fluorimetric assay relative to control
T2 sequence (whole entry): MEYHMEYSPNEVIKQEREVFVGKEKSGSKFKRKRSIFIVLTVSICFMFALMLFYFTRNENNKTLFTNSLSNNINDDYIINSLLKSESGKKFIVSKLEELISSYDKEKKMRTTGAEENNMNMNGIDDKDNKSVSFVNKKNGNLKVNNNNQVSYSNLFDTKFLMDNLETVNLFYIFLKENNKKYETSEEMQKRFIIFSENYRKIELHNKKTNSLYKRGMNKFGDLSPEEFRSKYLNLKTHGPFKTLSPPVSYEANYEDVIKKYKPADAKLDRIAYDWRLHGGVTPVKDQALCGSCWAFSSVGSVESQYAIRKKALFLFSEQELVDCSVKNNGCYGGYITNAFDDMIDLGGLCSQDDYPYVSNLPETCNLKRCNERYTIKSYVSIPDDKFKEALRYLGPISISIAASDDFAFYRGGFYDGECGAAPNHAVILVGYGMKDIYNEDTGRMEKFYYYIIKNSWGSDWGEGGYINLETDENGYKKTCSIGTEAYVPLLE

Plasmodium falciparum [3] = test: Antimalarial activity against Plasmodium falciparum 3D7 infected in human erythrocytes assessed as increase in arrest of ring stage at 100 uM incubated for 46 hrs by giemsa staining based light microscopy; assay type: functional, organism-based
Plasmodium falciparum [4] = test: Antimalarial activity against Plasmodium falciparum 3D7 infected in human erythrocytes assessed as increase in arrest of ring stage at 100 uM measured after 46 hrs by giemsa staining based light microscopy; assay type: functional, organism-based
Falcipain 2 = target: T3, Falcipain 2 (Plasmodium falciparum, UniProt Q9N6S8); test: Inhibition of recombinant Plasmodium falciparum falcipain-2 expressed in bacterial expression system using ZFR-AMC as substrate measured for 30 mins by fluorimetric assay
T3 sequence (Q9N6S8 whole entry): T1 sequence (whole entry)

[5] = target: T4, Cysteine protease falcipain-3 (Plasmodium falciparum, UniProt Q9NAW4); test: Inhibition of recombinant Plasmodium falciparum falcipain-3 expressed in bacterial expression system using ZFR-AMC as substrate measured for 30 mins by fluorimetric assay
T4 sequence (Q9NAW4 whole entry): T2 sequence (whole entry)

Plasmodium falciparum [6] = test: Antimalarial activity against Plasmodium falciparum 3D7 infected in human erythrocytes assessed as morphological abnormalities at 10 uM incubated for 54 hrs by giemsa staining based light microscopy; assay type: functional, organism-based
Plasmodium falciparum [7] = test: Antimalarial activity against Plasmodium falciparum 3D7 infected in human erythrocytes assessed as food-vacoules abnormalities at 10 uM incubated for 54 hrs by giemsa staining based light microscopy; assay type: functional, organism-based
Plasmodium falciparum [8] = test: Antimalarial activity against Plasmodium falciparum 3D7 infected in human erythrocytes assessed as increase in arrest of ring stage at 100 uM incubated for 54 hrs by giemsa staining based light microscopy relative to control; assay type: functional

| SMILES | inhibition [1] [%] | inhibition [2] [%] | also measured |
| --- | --- | --- | --- |
| CN1CCCc2cc(CCNC(=O)C(=O)Nc3ccc4c(c3)OCO4)ccc21 | 53 | 61 | Activity (Plasmodium falciparum [3]): Active; Activity (Plasmodium falciparum [4]): inactive; IC50 (Falcipain 2): 14.7 µM; IC50 [5]: 9.98 µM |
| CC(C)C[C@H](NC(=O)[C@H]1O[C@@H]1C(=O)O)C(=O)NCCCCN=C(N)N | – | – | Activity (Plasmodium falciparum [6]): Active; Activity (Plasmodium falciparum [7]): Active |
| O=C1C[C@H](C(=O)Nc2ccccc2)NC(N2CCN(Cc3ccccc3)CC2)=N1 | 44 | 17 | – |
| CCc1ccc(NC(=O)CN2CCN(c3nc4ccccc4s3)CC2)cc1 | 43 | 26 | – |
| O=C(CCC1=CC(=O)C2C(=N1)SC1=C2CCCC1)NC1CCCCNC1=O (stereo unspecified) | 49 | 39 | – |
| O=C1CCc2cc(CNC(=O)Cn3ncc4ccccc4c3=O)ccc2C1 | 42 | 41 | – |
| O=C(NCCCNC(=O)c1cc2ccccc2[nH]1)c1ccc(-c2ccccc2)cc1 | 51 | 62 | Activity (Plasmodium falciparum [8]): 100%; IC50 (Falcipain 2): 12.2 µM; IC50 [5]: 8.56 µM |
| O=C(NCCCn1nc2n(c1=O)CCCC2)c1cc2c(cc1O)CCCC2 | 42 | 15 | – |

More lines, main results first:

| inhibition [1] [%] | inhibition [2] [%] | SMILES | also measured |
| --- | --- | --- | --- |
| 39 | 15 | O=C(CNC(=O)N1CCN(Cc2ccccc2)CC1)NC1=CC2=CC=N[C@@H]2C=C1 | – |
| 19 | 21 | O=C(CN1CCN(C2=NCCC=N2)CC1)Nc1cccc2ccccc12 | – |
| 47 | 49 | O=C(CN1CCC(C2N=c3ccccc3=N2)CC1)Nc1cccc2ccccc12 | – |
| 25 | 25 | O=C1CN(CC(=O)NC2CCOc3ccccc32)CCN1 (stereo unspecified) | – |
| 19 | 6 | Cc1ccc(NCC(=O)NC2CC2)cc1S(=O)(=O)C1CCCCC1 | – |
| 22 | 69 | O=C(CN1CCC(c2ccccc2)C1)NC1CCC2(CC1)OCCO2 (stereo unspecified) | – |
| 46 | 50 | O=C(Nc1ccc([C@@H]2C=c3ccccc3=N2)cc1)[C@@H]1CCCN1C1CCOCC1 | – |
| 43 | 25 | Cc1cccc(O)c1OC1CCN(CC(=O)Nc2ccc(CN3CCOCC3)cc2)CC1 | – |
| 41 | 9 | Cc1ccc(NC(=O)CN2CCC[C@H](c3nc4ccccc4o3)C2)cc1C | – |
